Data set [1] is described as follows: Thermodynamic aqueous solubility assay in PBS. The following applies: for Thermodynamic solubility: room temperature, PBS buffer pH 7.4, duplicate. On the procedure: Alternatively, aqueous solubility was determined by a thermodynamic solubility assay as follows. 2.5 mg of test compound was weighed in a glass vial, 0.5 mL of phosphate buffered saline (pH=7.4) was added and the sample briefly vortexed. Samples were then incubated overnight at room temperature on a vial roller system to dissolve as much of the compound as possible into solution. Following incubation, the aqueous solutions were filtered in duplicate ([…]) and the filtrate diluted 1:1 with 100% methanol. Samples were further diluted where necessary and analyzed by HPLC. The concentration of compound in solution was determined by comparison to a standard curve made with authentic analytical standards.

Data set [2] can be described thus: Chemical stability under acidic, alkaline, oxidative and heat stress (HPLC). To be noted: for % of substrate remaining in solution: HPLC, relative to control at 30° C. pH 7.0; for percent remaining after 24 h exposure relative to a control at ambient conditions: alkaline conditions (NaOH, final pH 12.5); for release of CBD aglycone (stability of the glucoside bond): any condition (acidic, alkaline, oxidative, heat). On the procedure: Alternatively, chemical stability of cannabinoid glycosides was determined under alkaline, acidic, oxidative and heat stress as follows. 25 mM stock solutions of cannabinoids and cannabinoid glycosides were prepared in 100% methanol. 15 μL is mixed with 5 μL of 400 mM HCl solution (final pH=1.1), 400 mM NaOH solution (Final pH=12.5), 12% H2O2 solution (final concentration 3%), or H2O pH 7.0. […] A control under ambient conditions was also prepared where 15 μL of the cannabinoid or cannabinoid glycoside was added to 5 μL H2O pH 7.0 and incubated at 30° C. After 24 h samples were placed on ice and 60 μL of ice-cold 100% methanol is added to each sample. Samples were centrifuged and transferred to HPLC vials for analysis. The remaining concentration of cannabinoid or cannabinoid glycoside was quantified by comparing to authentic analytical standards. Determining the presence of degradation products were determined by comparing with authentic analytical standards.
CBD, CBD-1′-O-β-D-glucoside (OB1), and CBD-1′-O-β-D-glucosyl-3′-O-β-D-glucoside (OB6) were exposed to oxidative, alkaline, acidic and heat conditions as described above, and their degradation quantified by HPLC analysis by measuring the amount of compound remaining in solution after 24 h exposure to a given condition and expressed as percent (%) remaining after 24 h exposure relative to a control at ambient conditions. Also measured was the accumulation of the known CBD degradation product THC, expressed as percent accumulated after 24 h exposure.

A short description of data set [3]: Hepatic microsomal stability. To be noted: for t1/2 / CLint: human liver microsomes 0.5 mg/mL, 1 μM compound, NADPH and UDP-glucuronic acid. On the procedure:
Hepatic microsomal stability of cannabinoid glycosides were determined by incubating 2 μM of molecule with HepaRG™ human liver microsomes (Sigma) supplemented with NADPH at 37° C. Samples were taken at 0, 5, 15, 30, 45, and 60 minute intervals and analyzed as described above. Verapamil (rapid clearance) and Diazepam (low clearance) were used as references.
Alternatively, hepatic microsomal stability of cannabinoid glycosides was determined as follows. HepaRG™ pooled human liver microsomes (Sigma) (final protein concentration=0.5 mg/mL) were mixed with alamethicin (25 μg/mg), 0.1 M phosphate buffer (pH=7.4) and the test compound (1 μM final in DMSO) and incubated at 37° C. prior to addition of NADPH (final concentration 1 mM) and UDP-glucuronic acid (final concentration 1 mM) to initiate the reaction. The compound was incubated for 0, 5, 15, 30, and 45 minutes and the reaction terminated by adding acetonitrile in a 1:3 ratio (v/v). Reactions were centrifuged at 3000 rpm for 20 min at 4° C. to precipitate the protein. Following protein precipitation, internal standards were added to the sample supernatants and analyzed by LC-MS to measure the concentration of compound remaining at each time point, quantification was achieved by comparison to authentic analytical standards.
In vitro hepatic microsomal stability was performed for CBD, CBD-1′-O-β-D-glucoside (OB1), and CBD-1′-O-β-D-glucosyl-3′-O-β-D-glucoside (OB6) as described above and the intrinsic clearance (CLint) and half-life (t1/2) of each compound was determined.
In general terms: Microsomes from liver hold many membrane-bound enzymes, among them those of drug oxidation.

Broadly, the solubility is how much of the substance goes into solution per volume. Read a high solubility as a readily soluble substance. Broadly, the microsomal CLint is the capacity of the preparation to metabolise the compound, expressed as a volume cleared per time. High values mean rapid turnover, low ones slow turnover.

Take `C=C(C)[C@@H]1CCC(C)=C[C@H]1c1c(O)cc(CCCCC)cc1O` [CBD, cannabidiol, reference compound]: the solubility in data set [1] (phosphate buffered saline, pH 7.4, aqueous buffer, thermodynamic from solid) is no more than 0.0005 mM. Moreover, the Thermodynamic solubility entry in data set [1] is listed as “Below Detection Limit”. Moreover, the “% of substrate remaining in solution” value is 63.90% in data set [2] (Acidic (pH 1.1), 24 h); 2.26% in data set [2] (Alkaline (pH 12.5), 24 h); 72.76% in data set [2] (Heat (60° c.), 24 h); 70.56% in data set [2] (Oxidative (H2O2 3%), 24 h). Moreover, in data set [2] (acidic and alkaline conditions, 24 h), the “accumulation of degradation product THC” value is “degrades to THC”. Besides, the “percent remaining after 24 h exposure relative to a control at ambient conditions” value in data set [2] (30° C.) worked out at 2.26%. The “stability under stress conditions” value in data set [2] (all conditions tested (acidic, alkaline, oxidative, heat), 24 h) is given as “unstable under all conditions tested”. The t1/2 in data set [3] turned out to be 3.77 min. Besides, in data set [3] (human, microsomes, pH 7.4), the microsomal CLint at 1 μM was determined as 368 ± 0.684 µL/min/mg.
On to `C=C(C)[C@@H]1CCC(C)=C[C@H]1c1c(O[C@@H]2O[C@H](CO)[C@@H](O)[C@H](O)[C@H]2O)cc(CCCCC)cc1O[C@@H]1O[C@H](CO)[C@@H](O)[C@H](O)[C@H]1O` [OB6, CBD-1′-O-β-D-glucosyl-3′-O-β-D-glucoside], for which, in data set [1], the Thermodynamic solubility amounted to 11.4 ± 0.75 mM. Moreover, the “% of substrate remaining in solution” value in data set [2] (Acidic (pH 1.1), 24 h) is 91.90%; in data set [2] (Alkaline (pH 12.5), 24 h), 100.62%; in data set [2] (Heat (60° c.), 24 h) it was 80.79%; in data set [2] (Oxidative (H2O2 3%), 24 h) it was 74.98%. Also, the “percent remaining after 24 h exposure relative to a control at ambient conditions” value in data set [2] (30° C.) is given as 100%. Moreover, in data set [2] (24 h), the “release of CBD aglycone (stability of the glucoside bond)” value is listed as “no CBD aglycone was detected”. Besides, the “accumulation of THC or THC-glucoside” value in data set [2] (any of the conditions (acidic, alkaline, oxidative, heat), 24 h) is on record as “no THC or THC-glucoside was detected”. In data set [3] (human liver microsomes), the “decrease in intrinsic clearance versus CBD” value was 50 fold. In addition, the “increase in half-life versus CBD” value in data set [3] (human liver microsomes) worked out at 50 fold. Also, the CLint in data set [3] turned out to be 7.39 ± 1.32 μL/min/mg protein. For the same compound, the t1/2 in data set [3] was determined as 188 min.
As to `C=C(C)[C@@H]1CCC(C)=C[C@H]1c1c(O)cc(CCCCC)cc1O[C@@H]1O[C@H](CO)[C@@H](O)[C@H](O)[C@H]1O` [OB1, CBD-1′-O-β-D-glucoside], the “% accumulation of THC-1′-O-β-D-glucoside (OB20)” value in data set [2] (Acidic (pH 1.1), 24 h) turned out to be 1.61%. Moreover, the “% of substrate remaining in solution” value in data set [2] (Acidic (pH 1.1), 24 h) is 80.02%; in data set [2] (Alkaline (pH 12.5), 24 h), 100.27%; in data set [2] (Heat (60° c.), 24 h) it was 84.35%; in data set [2] (Oxidative (H2O2 3%), 24 h), 92.98%. In addition, the “accumulation of degradation product THC-1′-O-β-D-glucoside (OB20)” value in data set [2] (acidic conditions (HCl, final pH 1.1), 30° C., 24 h) is given as “a small amount of THC-1′-O-β-D-glucoside (OB20) was detected”. Moreover, the “percent remaining after 24 h exposure relative to a control at ambient conditions” value in data set [2] (30° C.) stood at 100%. Further, the “release of CBD aglycone (stability of the glucoside bond)” value in data set [2] (24 h) was “no CBD aglycone was detected”. In data set [3], the CLint turned out to be 1110 ± 0.312 μL/min/mg protein. Moreover, the t1/2 in data set [3] is 1.24 min.

The values are drawn from patent US20220290200A1, “GENETICALLY MODIFIED HOST CELLS PRODUCING GLYCOSYLATED CANNABINOIDS” (OCTARINE BIO IVS, priority 2019, published 2022).
